Laboratory results as given in PubChem BioAssay AID1963963 (Molecular Pharmacology Branch, DTP, NCI, 2024).
“And” between values parts separate entries of the source, which are not always exact repeats. Identical values can stand only once.

System: 958667-338-R-J2-PDC tumor spheroids viability
Assay: Anticancer human tumor 958667-338-R-J2-PDC patient-derived colon adenocarcinoma cell line growth inhibition [PI3K]
Settings: spheroids with HUVEC and MSC; for viability, T/C: stronger effect = lower value; active means viability on the fitted dose curve at most 10% of control; inactive means the rest
Procedure, shortened: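 Multi-cell spheroids combine tumor cells with HUVEC and human MSCs, treated with targeted agents alone or with inavolisib, alpelisib, duvelisib or copanlisib. Concentrations fall in half-log steps from at or near clinical Cmax, or from 10 microM where Cmax is unknown; viability read-out.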

[1] = curve of first compound, second compound 0.00316 µM
[2] = curve of first compound, second compound 0.01 µM
[3] = curve of first compound, second compound 0.0316 µM
[4] = curve of first compound, second compound 0.1 µM
[5] = curve of first compound, second compound 0.316 µM
[6] = curve of first compound, second compound 1 µM
[7] = second compound 0.00316 µM, first compound 0.0316 µM
[8] = second compound 0.00316 µM, first compound 0.1 µM
[9] = second compound 0.00316 µM, first compound 0.316 µM
[10] = second compound 0.00316 µM, first compound 1 µM
[11] = second compound 0.00316 µM, first compound 3.16 µM
[12] = second compound 0.00316 µM, first compound 10 µM
[13] = second compound 0.01 µM, first compound 0.0316 µM
[14] = second compound 0.01 µM, first compound 0.1 µM
[15] = second compound 0.01 µM, first compound 0.316 µM
[16] = second compound 0.01 µM, first compound 1 µM
[17] = second compound 0.01 µM, first compound 3.16 µM
[18] = second compound 0.01 µM, first compound 10 µM
[19] = second compound 0.0316 µM, first compound 0.0316 µM
[20] = second compound 0.0316 µM, first compound 0.1 µM
[21] = second compound 0.0316 µM, first compound 0.316 µM
[22] = second compound 0.0316 µM, first compound 1 µM
[23] = second compound 0.0316 µM, first compound 3.16 µM
[24] = second compound 0.0316 µM, first compound 10 µM
[25] = second compound 0.1 µM, first compound 0.0316 µM
[26] = second compound 0.1 µM, first compound 0.1 µM
[27] = second compound 0.1 µM, first compound 0.316 µM
[28] = second compound 0.1 µM, first compound 1 µM
[29] = second compound 0.1 µM, first compound 3.16 µM
[30] = second compound 0.1 µM, first compound 10 µM
[31] = second compound 0.316 µM, first compound 0.0316 µM
[32] = second compound 0.316 µM, first compound 0.1 µM
[33] = second compound 0.316 µM, first compound 0.316 µM
[34] = second compound 0.316 µM, first compound 1 µM
[35] = second compound 0.316 µM, first compound 3.16 µM
[36] = second compound 0.316 µM, first compound 10 µM
[37] = second compound 1 µM, first compound 0.0316 µM
[38] = second compound 1 µM, first compound 0.1 µM
[39] = second compound 1 µM, first compound 0.316 µM
[40] = second compound 1 µM, first compound 1 µM
[41] = second compound 1 µM, first compound 3.16 µM
[42] = second compound 1 µM, first compound 10 µM
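Further: spheroids exposed to compounds for seven days before readout.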

C[C@@H](NC(=O)c1ncnc(N)c1Cl)c1ncc(C(=O)Nc2cc(C(F)(F)F)c(Cl)cn2)s1 + CC(Nc1ccc2c(c1)OCCn1cc(N3C(=O)OCC3C(F)F)nc1-2)C(N)=O
inactive: viability, T/C [7] 112% | viability, T/C [8] 116% | viability, T/C [9] 87.5% | viability, T/C [10] 120% | viability, T/C [11] 115% | viability, T/C [12] 103% | viability, T/C [13] 118% | viability, T/C [14] 131% | viability, T/C [15] 113% | viability, T/C [16] 111% | viability, T/C [17] 101% | viability, T/C [18] 102% | viability, T/C [19] 90.4% | viability, T/C [20] 97% | viability, T/C [21] 92% | viability, T/C [22] 96.1% | viability, T/C [23] 101% | viability, T/C [24] 108% | viability, T/C [25] 88.5% | viability, T/C [26] 97.4% | viability, T/C [27] 93.9% | viability, T/C [28] 94.2% | viability, T/C [29] 90.1% | viability, T/C [30] 76.2% | viability, T/C [31] 67.7% | viability, T/C [32] 72.4% | viability, T/C [33] 95.1% | viability, T/C [34] 80.8% | viability, T/C [35] 77.8% | viability, T/C [36] 80% | viability, T/C [37] 61.2% | viability, T/C [38] 59.8% | viability, T/C [39] 59.3% | viability, T/C [40] 64.3% | viability, T/C [41] 75.5% | viability, T/C [42] 58.9%
> 10 µM: IC50 [1] | IC50 [2] | IC50 [3] | IC50 [4] | IC50 [5] | IC50 [6]

Cn1nccc1Nc1nccc(-c2ccn(C(CO)c3ccc(Cl)c(F)c3)c(=O)c2)n1 (stereo unspecified) + COc1c(OCCCN2CCOCC2)ccc2c3n(c(=NC(=O)c4cnc(N)nc4)nc12)CCN3
9.71 µM: IC50 [1]
inactive: viability, T/C [7] 93.8% | viability, T/C [8] 98.4% | viability, T/C [9] 97.9% | viability, T/C [10] 83.5% | viability, T/C [11] 67.1% | viability, T/C [12] 49.3% | viability, T/C [13] 98.6% | viability, T/C [14] 100% | viability, T/C [15] 99.1% | viability, T/C [16] 83.3% | viability, T/C [17] 81.6% | viability, T/C [18] 41.2% | viability, T/C [19] 80.3% | viability, T/C [20] 86.7% | viability, T/C [21] 83.1% | viability, T/C [22] 57.1% | viability, T/C [23] 52.3% | viability, T/C [24] 25.6% | viability, T/C [25] 58.6% | viability, T/C [26] 55.4% | viability, T/C [27] 60% | viability, T/C [28] 55.6% | viability, T/C [29] 27.7% | viability, T/C [30] 12% | viability, T/C [31] 30.9% | viability, T/C [32] 42.4% | viability, T/C [33] 28.8% | viability, T/C [34] 31.9% | viability, T/C [35] 15.4% | viability, T/C [37] 16.9% | viability, T/C [38] 13.1% | viability, T/C [39] 18.1%
7.7 µM: IC50 [2]
< 0.0316 µM: IC50 [5] | IC50 [6]
2.72 µM: IC50 [3]
1.27 µM: IC50 [4]
active: viability, T/C [36] 1.75% | viability, T/C [40] 13.6% | viability, T/C [41] 3.23% | viability, T/C [42] 1.67%

CCCS(=O)(=O)Nc1ccc(F)c(C(=O)c2c[nH]c3ncc(-c4ccc(Cl)cc4)cc23)c1F
6.27 µM [middle of 4 runs]: IC50 (curve of compound)
inactive: viability, T/C (compound 0.1 µM) 94.2% and 87.7% and 113% (2×) | viability, T/C (compound 0.316 µM) 107% [middle of 4 runs] | viability, T/C (compound 1 µM) 114% [middle of 4 runs] | viability, T/C (compound 3.16 µM) 116% [middle of 4 runs]
10.9% [middle of 4 runs]: viability, T/C (compound 10 µM)

CC(Cn1ccc(-c2ccc(C#N)c(Cl)c2)n1)NC(=O)c1cc(C(C)O)[nH]n1 (stereo unspecified) + CC(Nc1ccc2c(c1)OCCn1cc(N3C(=O)OCC3C(F)F)nc1-2)C(N)=O
inactive: viability, T/C [7] 118% | viability, T/C [8] 111% | viability, T/C [9] 126% | viability, T/C [10] 117% | viability, T/C [11] 84.7% | viability, T/C [12] 99.2% | viability, T/C [13] 92.7% | viability, T/C [14] 106% | viability, T/C [15] 77.4% | viability, T/C [16] 91.4% | viability, T/C [17] 90.6% | viability, T/C [18] 90.5% | viability, T/C [19] 89.8% | viability, T/C [20] 99.9% | viability, T/C [21] 97.8% | viability, T/C [22] 93% | viability, T/C [23] 95% | viability, T/C [24] 75.2% | viability, T/C [25] 111% | viability, T/C [26] 88.9% | viability, T/C [27] 81.1% | viability, T/C [28] 78.6% | viability, T/C [29] 91.1% | viability, T/C [30] 82.4% | viability, T/C [31] 80% | viability, T/C [32] 49.7% | viability, T/C [33] 84.5% | viability, T/C [34] 63.6% | viability, T/C [35] 63.7% | viability, T/C [36] 78.8% | viability, T/C [37] 64.2% | viability, T/C [38] 61.2% | viability, T/C [39] 66.1% | viability, T/C [40] 62.8% | viability, T/C [41] 55.7% | viability, T/C [42] 49.8%
> 10 µM: IC50 [1] | IC50 [2] | IC50 [3] | IC50 [4] | IC50 [5] | IC50 [6]

Cn1ncnc1[C@H]1c2n[nH]c(=O)c3cc(F)cc(c23)N[C@@H]1c1ccc(F)cc1
> 0.1 µM: IC50 (curve of compound)
inactive: viability, T/C (compound 0.000316 µM) 115% [middle of 4 runs] | viability, T/C (compound 0.001 µM) 110% [middle of 4 runs] | viability, T/C (compound 0.00316 µM) 97.5% [middle of 4 runs] | viability, T/C (compound 0.0316 µM) 103% [middle of 4 runs] | viability, T/C (compound 0.1 µM) 99.1% [middle of 4 runs]

CC(=O)c1c(C)c2cnc(Nc3ccc(N4CCNCC4)cn3)nc2n(C2CCCC2)c1=O
inactive: viability, T/C (compound 0.000316 µM) 110% [middle of 4 runs] | viability, T/C (compound 0.00316 µM) 107% [middle of 4 runs] | viability, T/C (compound 0.01 µM) 109% (2×) and 88% and 111% | viability, T/C (compound 0.0316 µM) 99.5% and 114% (2×) and 106% | viability, T/C (compound 0.1 µM) 93.8% [middle of 4 runs]
> 0.1 µM: IC50 (curve of compound)

CC1(C)CCC(CN2CCN(c3ccc(C(=O)NS(=O)(=O)c4ccc(NCC5CCOCC5)c([N+](=O)[O-])c4)c(Oc4cnc5[nH]ccc5c4)c3)CC2)=C(c2ccc(Cl)cc2)C1 + COc1c(OCCCN2CCOCC2)ccc2c3n(c(=NC(=O)c4cnc(N)nc4)nc12)CCN3
< 0.0316 µM: IC50 [5] | IC50 [6]
active: viability, T/C [36] 4.13%
3.76 µM: IC50 [4]
5.73 µM: IC50 [2]
inactive: viability, T/C [7] 76.5% | viability, T/C [8] 96.3% | viability, T/C [9] 80.3% | viability, T/C [10] 98.8% | viability, T/C [11] 103% | viability, T/C [12] 25.6% | viability, T/C [13] 71.8% | viability, T/C [14] 85.9% | viability, T/C [15] 72.5% | viability, T/C [16] 76.6% | viability, T/C [17] 75.8% | viability, T/C [18] 25.9% | viability, T/C [19] 77.6% | viability, T/C [20] 66.2% | viability, T/C [21] 61.6% | viability, T/C [22] 69% | viability, T/C [23] 80.6% | viability, T/C [24] 22.6% | viability, T/C [25] 58% | viability, T/C [26] 53.4% | viability, T/C [27] 48.8% | viability, T/C [28] 53.9% | viability, T/C [29] 69.6% | viability, T/C [30] 11.9% | viability, T/C [31] 45.8% | viability, T/C [32] 42.3% | viability, T/C [33] 33.9% | viability, T/C [34] 33.5% | viability, T/C [35] 32.5% | viability, T/C [37] 19.7% | viability, T/C [38] 15.1% | viability, T/C [39] 19% | viability, T/C [40] 21.9% | viability, T/C [41] 18.2% | viability, T/C [42] 2.25%
5.21 µM: IC50 [3]
6.52 µM: IC50 [1]
